Reference: patent US20060154243A1 (priority 2003, published 2006)

Tests used:
two control sera = format: binding, human
[1] = tested on: sera SARS-green, SARS-yellow, 1a, 1b, 2, 6, 37, 62 and London; format: binding, human
[2] = tested on: rabbit serum obtained by immunizing with SARS-CoV strain Frankfurt 1; format: binding
serum SARS-green = format: binding, human
[3] = tested on: control serum LUMC (pooled serum of ten healthy hospital workers); format: binding, human
[4] = tested on: serum 1a (individual 1, early serum); format: binding, human
serum SARS-yellow = format: binding, human
serum London = format: binding, human
serum 6 (individual 6) = format: binding, human
[5] = tested on: control serum Blood-bank (commercial negative donor pooled serum); format: binding, human
[6] = tested on: serum 1b (individual 1, late serum); format: binding, human
serum 2 (individual 2) = format: binding, human
serum 37 (individual 37) = format: binding, human
serum 62 (individual 62) = format: binding, human

Sequence	Recognition by at least one of the control sera (two control sera)	Recognition of the peptide by sera of individuals infected by SARS-CoV, form recognized [1]	Rabbit serum linear peptides [2]	Rabbit serum looped peptides [2]	Binding of serum SARS-green to linear peptides of Orf14 of SARS-CoV TOR2 (serum SARS-green)	Control serum LUMC linear peptides [3]	Control serum LUMC looped peptides [3]	Binding of serum 1a to linear peptides of Orf14 of SARS-CoV TOR2 [4]	Binding of serum SARS-yellow to linear peptides of Orf14 of SARS-CoV TOR2 (serum SARS-yellow)	Binding of serum London to linear peptides of Orf14 of SARS-CoV TOR2 (serum London)	Binding of serum 6 to linear peptides of Orf14 of SARS-CoV TOR2 (serum 6 (individual 6))	Control Serum Blood-Bank Looped peptides [5]	Control serum Blood-bank linear peptides [5]	Binding of serum 1b to linear peptides of Orf14 of SARS-CoV TOR2 [6]	Binding of serum 2 to linear peptides of Orf14 of SARS-CoV TOR2 (serum 2 (individual 2))	Binding of serum 37 to linear peptides of Orf14 of SARS-CoV TOR2 (serum 37 (individual 37))	Binding of serum 62 to linear peptides of Orf14 of SARS-CoV TOR2 (serum 62 (individual 62))
CTVVQRCASNKPHVL	recognized by at least one of the control sera	recognized in linear and in looped form	1.7	1.0													
ICTVVQRCASNKPHV	recognized by at least one of the control sera	recognized in linear and in looped form	0.3	0.4													
NVVPPALHLVDPQIQ	recognized by at least one of the control sera	recognized in linear and in looped form	0.1	0.5													
STQREAEAAVKPLLA		recognized in looped form			0.4	0.6	1.2	0.5	0.5	0.4	0.5	1.2	0.6	0.3	0.5	0.6	0.4
TNVVPPALHLVDPQI	recognized by at least one of the control sera	recognized in linear and in looped form	0.1	0.5													
TVVQRCASNKPHVLE	recognized by at least one of the control sera	recognized in linear and in looped form	0.7	0.3													
VPPALHLVDPQIQLT	recognized by at least one of the control sera	recognized in linear and in looped form	1.0	0.4													
VVPPALHLVDPQIQL	recognized by at least one of the control sera	recognized in linear and in looped form	1.2	0.4													
YNFLKEQHCQKASTQ		recognized in looped form			0.5	0.5	0.5	0.5	0.3	0.7	0.5	0.7	0.5	0.4	0.5	0.6	0.5
